Data taken from patent US10940475B2, “Gradient-on-a-chip” (Purdue Research Foundation, priority 2017, dated 2021).
Like-named read-outs stand apart in the source and are kept apart here.

Assays:
S2 cells [1] = settings: four hours
Procedure: (§1) A NE-4000X dual syringe pump (New era pump systems Inc., Farmingdale, N.Y.) was exposed to UV overnight before the day of experiments. The flow rate was adjusted to 0.1 ml/h, and using a 60 ml syringe a continuous inflow of medium and H2O2 (250 μM) through the inlets was maintained. The second pump was connected to the outlet to remove the medium at 0.2 ml/h to avoid overflow of liquids in the cell culture aperture of the device. The flow rate for the outlet pump was twice that of the incoming flow rate to accommodate for the use of two inlets. The paper strip with cells in 2D or 3D culture was placed in the cell culture slot of the device and exposed to the ROS gradient for four hours.
Nuclear circularity and nuclear area were measured using the ImageJ software by outlining the nuclear shape based on DAPI staining. The most circular nuclei are given a score of 1 (perfectly round nucleus). Nuclear area was measured in pixels and converted to μm^2 based on the spatial calibration table of ImageJ.

S2 cells [2] = settings: for cells with γ-H2Ax staining: low ROS concentration tier, gradient from 250 μM H2O2, four hours
Procedure: Human mammary epithelial non-neoplastic S1 cells^17 [used between passages 52 to 60], preinvasive S2 cells^18 [used between passages 218+2 and 218+10] and invasive T4-2 cells^19 [used between passages 28+4 and 28+10] that belong to the HMT-3522 breast cancer progression series, were cultured in H-14 medium, i.e., Dulbecco modified Eagle medium (DMEM) (Invitrogen Inc., Carlsbad, Calif.) supplemented with additives, prolactin (30.3 IU/ml; Sigma-Aldrich, St Louis, Mo.), insulin (100 μg/ml; Sigma-Aldrich), hydrocortisone (0.5 mg/ml; BD Biosciences, San Jose, Calif.), beta-estradiol (2.67×10^−5 μg/ml; Sigma-Aldrich), selenium (2.6 μg/ml; BD Biosciences) and transferrin (20 mg/ml; Sigma-Aldrich)^20. The culture medium also included epithelial growth factor (EGF) (20 mg/ml; BD Biosciences) until day 6 of culture, after which EGF was omitted from the culture medium to ensure proliferation arrest in 3D culture. Cell culture was performed at 37° C. in a humidified environment with 5% carbon dioxide and the culture medium was changed every three days for the S1 cells and every two days for S2 and T4-2 cells. Seeding densities in 2D culture were 22600 cells/cm^2 for S1 cells and 11900 cells/cm^2 for S2 and T4-2 cells. In 3D culture seeding densities were 86300 cells/cm^2 for S1 cells in the presence of Engelbreth-Holm-S warm (EHS) mouse derived Matrigel (Corning Life Sciences, Tewksbury, Ma.) or within collagen-1 rich Collymer matrix (GeniPhys™, Zionsville, Ind.) and 43150 cells/cm^2 for S2 and T4-2 cells. […] Briefly, 42 μl of Matrigel per cm^2 was used for the drip method with cells in 150 μl of medium, dripped on the gel-coated surface, before adding another 150 μl of medium with 10% EHS gel drop-by-drop all over the culture surface five minutes later (in the end seeding involved 3.47×10^4S1 cells/cm^2 per 55 μl of Matrigel; 1.74×10^4S2 or T4-2 cells/cm^2 per 55 μl of Matrigel). Collymers were prepared at different degrees of stiffness based on the formula provided by the manufacturer. S1 cells were cultured in 800 Pa Collymers stiffness, S2 cells were cultured in 800 Pa and 1500 Pa Collymers stiffness and T4-2 cells were cultured in 1500 Collymers stiffness. For the S2 cells, since they are preinvasive and nodules are surrounded by a basement membrane, basement membrane formation inducer laminin 111 (Corning) was mixed at 76 μg/ml final concentration with Collymers. For the Collymers thin-embedded culture, the surface was coated with 14 μl/cm^2 of Collymers of the desired stiffness. Collymers become opaque when they form a gel by incubation five minutes at 37° C. Cells were mixed with Collymers at the following concentrations per surface of culture and Collymers volume units: 4500 cells/cm^2/μl for S1 cells and 2262 cells/cm^2/μl for S2 and T4-2 cells. Following centrifugation at 2950 g for five minutes, the cells needed for each culture surface were put in solution in 5 μl of H-14 medium. Then, the cell suspension was mixed with Collymers (55 μl/cm^2 of culture surface) by gentle pipetting before coating on the cell culture surface, drop-by-drop all over the surface, and spreading with the pipette tip to ensure even distribution over the culture surface. After incubation five minutes at 37° C., 500 μl medium was added on top of the Collymers-embedded cells.
Antibodies used included Anti-rabbit Caspase-3 (Cell Signaling Technologies, Boston, Mass. 1/400 dilution), AOP2 (Abcam, Cambridge, Mass.; 2 μg/ml) and γ-H2AX (Ser139; Millipore, clone JBW301, 3.3 μg/ml). […]

S2 cells [3] = settings: four hours; remark: listed apart in the source
Procedure: as §1

SMILES: OO [ROS, hydrogen peroxide]
- nuclear area (S2 cells [1]; ROS exposure regardless of the cell culture condition): increased
- nuclear circularity (S2 cells [1]; with increasing ROS concentration tiers, all culture conditions): decreased
- γ-H2AX response level of the cell population (S2 cells [2]; high concentration tier, all culture conditions, four hours): around 40%
- cells with γ-H2Ax staining (S2 cells [2]; 800 Pa Collymers): 20%
- cells with γ-H2Ax staining (S2 cells [2]; 1500 Pa Collymers culture): less than 5%
- cells with γ-H2Ax staining (S2 cells [2]; Matrigel culture): less than 5%
- cells with γ-H2Ax staining (S2 cells [2]; cells cultured on paper (2D)): 20%
- oxidative DNA damage based on 8-OHdG expression (S2 cells [3]; low ROS concentration tier, 2D and 3D Matrigel culture): did no show oxidative DNA damage
- 8-OHdG levels (S2 cells [3]; medium and high ROS concentration tiers, 2D cell culture and 3D Matrigel cell culture): significant, but similar increase
- AOP2 response (nodules stained for AOP2) (S2 cells [3]; regardless of the ROS levels): ~100%
